According to ChEMBL document CHEMBL1201862, “PubChem BioAssay data set” (2004):
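96-well plates; 48 h exposure; 5 concentrations. Endpoints by linear interpolation between flanking doses. Not reached: highest tested concentration assigned. GI50: concentration for 50% inhibition of growth.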 The source made the active and inactive calls. Rule as the data show it: active = GI50 up to about 1.1 µM and inactive = higher.

Key:
Assay in all cases: DTP human tumour cell line panel, 48 h
[1] = tested on: 786-0
[2] = tested on: COLO 205
[3] = tested on: HL-60
[4] = tested on: HOP-92
[5] = tested on: IGROV-1
[6] = tested on: MOLT-4
[7] = tested on: OVCAR-8
[8] = tested on: SF-295
[9] = tested on: SF-539
[10] = tested on: SK-MEL-2
[11] = tested on: SK-MEL-5
[12] = tested on: SK-OV-3
[13] = tested on: SN12C
[14] = tested on: SNB-75
[15] = tested on: UACC-62
[16] = tested on: UO-31

| Structure (SMILES) | GI50 [1] | GI50 [2] | GI50 [3] | GI50 [4] | GI50 [5] | GI50 [6] | GI50 [7] | GI50 [8] | GI50 [9] | GI50 [10] | GI50 [11] | GI50 [12] | GI50 [13] | GI50 [14] | GI50 [15] | GI50 [16] |
| --- | --- | --- | --- | --- | --- | --- | --- | --- | --- | --- | --- | --- | --- | --- | --- | --- |
| Cc1ccc(C)c(NC(=O)c2cc(-c3ccc([N+](=O)[O-])cc3)nc(N)n2)c1 | > 100 µM (inactive) | > 100 µM (inactive) | > 100 µM (inactive) | > 100 µM (inactive) | > 100 µM (inactive) | > 100 µM (inactive) | > 100 µM (inactive) | > 100 µM (inactive) | > 100 µM (inactive) | > 100 µM (inactive) | > 100 µM (inactive) | > 100 µM (inactive) | > 100 µM (inactive) | > 100 µM (inactive) | > 100 µM (inactive) | > 100 µM (inactive) |
| C[C@]12CCC(=O)C=C1CC[C@@H]1[C@@H]2CC[C@]2(C)C(=O)NC(=O)C[C@@H]12 | > 100 µM (inactive) | > 100 µM (inactive) | > 100 µM (inactive) | > 100 µM (inactive) | > 100 µM (inactive) | > 100 µM (inactive) | > 100 µM (inactive) | > 100 µM (inactive) | > 100 µM (inactive) | > 100 µM (inactive) | > 100 µM (inactive) | > 100 µM (inactive) | > 100 µM (inactive) | > 100 µM (inactive) | > 100 µM (inactive) | > 100 µM (inactive) |
| CCOC(=O)C(=Cc1ccc(C(=O)OC)cc1)C(=O)OCC | 1.62 µM (inactive) | 1.85 µM (inactive) | 1.54 µM (inactive) | 1.67 µM (inactive) | 3.01 µM (inactive) | 2.61 µM (inactive) | 2.98 µM (inactive) | 5.26 µM (inactive) | 1.67 µM (inactive) | 1.75 µM (inactive) | 2.05 µM (inactive) | 13.6 µM (inactive) | 2.25 µM (inactive) | 2.07 µM (inactive) | 2.04 µM (inactive) |  |
| N/N=C(\CC1OC(=O)c2ccccc21)c1ccco1 (stereo not given) | < 0.01 µM (active) | > 100 µM (inactive) | > 100 µM (inactive) | > 100 µM (inactive) | > 100 µM (inactive) | > 100 µM (inactive) |  | > 100 µM (inactive) | > 100 µM (inactive) | > 100 µM (inactive) | > 100 µM (inactive) | > 100 µM (inactive) |  | > 100 µM (inactive) | > 100 µM (inactive) | > 100 µM (inactive) |
| CCNC(=O)C#CC(=O)NCC | > 100 µM (inactive) | 44.6 µM (inactive) | > 39.5 µM (inactive) | > 100 µM (inactive) | > 100 µM (inactive) | > 100 µM (inactive) | > 100 µM (inactive) | > 100 µM (inactive) | > 100 µM (inactive) | > 100 µM (inactive) | > 100 µM (inactive) | > 100 µM (inactive) | > 100 µM (inactive) | > 69 µM (inactive) | > 100 µM (inactive) | > 100 µM (inactive) |
| CC(C)C1CO[C@]2(C)CCC(=O)N12 (stereo not given in full) | > 100 µM (inactive) | > 100 µM (inactive) | > 100 µM (inactive) | > 100 µM (inactive) | > 100 µM (inactive) | > 100 µM (inactive) | > 100 µM (inactive) | > 100 µM (inactive) | > 100 µM (inactive) | > 100 µM (inactive) | > 100 µM (inactive) | > 100 µM (inactive) | > 100 µM (inactive) | > 100 µM (inactive) | > 100 µM (inactive) | > 100 µM (inactive) |
| O=C1Nc2cc(Cl)ccc2N=CC1NC(=O)C(c1ccccc1)c1ccccc1Cl (stereo not given) | > 100 µM (inactive) | > 100 µM (inactive) | > 100 µM (inactive) | > 100 µM (inactive) | > 100 µM (inactive) | > 100 µM (inactive) | > 100 µM (inactive) | > 100 µM (inactive) | > 100 µM (inactive) | > 100 µM (inactive) | > 100 µM (inactive) | > 100 µM (inactive) | > 100 µM (inactive) | > 100 µM (inactive) | > 100 µM (inactive) | > 100 µM (inactive) |
| O=C(Nc1ccc(Cl)c(Cl)c1)C(=O)Nn1c(S)nc2ccccc2c1=O | > 100 µM (inactive) | > 100 µM (inactive) | > 100 µM (inactive) | 45.3 µM (inactive) | > 100 µM (inactive) | > 100 µM (inactive) | > 100 µM (inactive) | > 100 µM (inactive) | > 100 µM (inactive) | > 100 µM (inactive) | > 100 µM (inactive) | > 100 µM (inactive) | > 100 µM (inactive) | > 100 µM (inactive) | > 100 µM (inactive) | > 100 µM (inactive) |
